The text below walks through data of ChEMBL document CHEMBL3351747, “Structure-based design of β1i or β5i specific inhibitors of human immunoproteasomes” (J Med Chem, 2014).

Some results are limits rather than exact numbers.

Experiment [1] in a line: Inhibition of 20s proteasome subunit beta-5c in human Raji cells using BODIPY-NC005 by fluorescent densitometry. Type of experiment: cell-based.
For experiment [2], the target named is T1, Proteasome subunit beta type-8 (Homo sapiens, UniProt P28062).
T1 sequence (P28062 whole entry): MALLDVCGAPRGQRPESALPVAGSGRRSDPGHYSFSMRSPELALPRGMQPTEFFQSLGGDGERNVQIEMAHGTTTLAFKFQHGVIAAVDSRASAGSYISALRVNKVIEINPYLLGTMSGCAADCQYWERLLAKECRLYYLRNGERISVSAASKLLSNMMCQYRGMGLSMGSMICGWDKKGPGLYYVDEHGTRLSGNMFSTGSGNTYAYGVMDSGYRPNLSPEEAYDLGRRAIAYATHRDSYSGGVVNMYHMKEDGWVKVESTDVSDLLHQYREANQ
The experiment in a line: Inhibition of proteasome subunit beta-5i in human Raji cells using BODIPY-NC005 by fluorescent densitometry. The class given is cell-based.

In experiment [3] the target is T2, Proteasome subunit beta type-9 (Homo sapiens, UniProt P28065).
T2 sequence (P28065 whole entry): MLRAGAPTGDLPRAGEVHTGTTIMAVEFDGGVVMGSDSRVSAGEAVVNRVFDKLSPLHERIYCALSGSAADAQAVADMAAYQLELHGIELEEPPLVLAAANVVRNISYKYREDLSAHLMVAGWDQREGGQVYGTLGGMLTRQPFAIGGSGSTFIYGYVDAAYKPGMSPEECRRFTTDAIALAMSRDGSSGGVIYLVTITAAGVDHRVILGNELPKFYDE
Put plainly: Inhibition of proteasome subunit beta-1i in human RPMI8226 cells using BODIPY-NC001 by fluorescent densitometry. The class given is cell-based, RPMI-8226.

The target of experiment [4] is T1, Proteasome subunit beta type-8. The experiment in a line: Inhibition of proteasome subunit beta-5i in human RPMI8226 cells using BODIPY-NC005 by fluorescent densitometry. Type of experiment: cell-based, RPMI-8226.
The target of experiment [5] is T2, Proteasome subunit beta type-9. The experiment in a line: Inhibition of proteasome subunit beta-1i in human Raji cells using BODIPY- epoxomicin by fluorescent densitometry. The class given is cell-based.
The nature of experiment [6]: Inhibition of 20s proteasome subunit beta-1c in human Raji cells using BODIPY- epoxomicin by fluorescent densitometry. Type of experiment: cell-based.
Experiment [7] concerns Raji. The experiment in a line: Ratio of IC50 for 20s proteasome subunit beta-1c to IC50 for proteasome subunit beta-1i in human Raji cells. Type of experiment: cell-based.
Experiment [8] in a line: Inhibition of 20s proteasome subunit beta-2c in human Raji cells using BODIPY- epoxomicin by fluorescent densitometry. Type of experiment: cell-based.
Experiment [9] is described as follows: Inhibition of 20s proteasome subunit beta-5c in human RPMI8226 cells using BODIPY-NC005 by fluorescent densitometry. The class given is cell-based. The settings on record: rpmi-8226.
Experiment [10] can be described thus: Inhibition of 20s proteasome subunit beta-1c in human RPMI8226 cells using BODIPY-NC001 by fluorescent densitometry. Type of experiment: cell-based. The note with it: rpmi-8226.
Experiment [11] in a line: Inhibition of 20s proteasome subunit beta-2c in human RPMI8226 cells using BODIPY-epoxomicin by fluorescent densitometry. Type of experiment: cell-based. The note with it: rpmi-8226.
The target in experiment [12] is T3, Proteasome subunit beta type-10 (Homo sapiens, UniProt P40306).
T3 sequence (P40306 whole entry): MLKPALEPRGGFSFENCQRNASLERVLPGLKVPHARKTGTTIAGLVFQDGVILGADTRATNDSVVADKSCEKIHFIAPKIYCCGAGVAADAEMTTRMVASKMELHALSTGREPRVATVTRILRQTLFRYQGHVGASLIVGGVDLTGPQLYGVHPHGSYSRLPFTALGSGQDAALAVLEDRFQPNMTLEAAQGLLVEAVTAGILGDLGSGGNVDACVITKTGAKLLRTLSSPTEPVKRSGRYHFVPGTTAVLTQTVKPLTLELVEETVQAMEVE
Put plainly: Inhibition of proteasome subunit beta-2i in human Raji cells using BODIPY- epoxomicin by fluorescent densitometry. The class given is cell-based.

The IC50 is the concentration that gives 50% inhibition. The low end stands for higher potency, the high end for lower potency. With `COc1ccc(C[C@H](NC(=O)[C@@H](C)NC(=O)CN2CCOCC2)C(=O)N[C@@H](Cc2ccccc2)C(=O)[C@@]2(C)CO2)cc1`, the IC50 in [1] turned out to be 116 nM.
With `COc1ccc(C[C@H](NC(=O)[C@@H](C)NC(=O)C2=C(C)c3ccccc3C2)C(=O)N[C@@H](Cc2ccccc2)C(=O)[C@@]2(C)CO2)cc1`, the IC50 in experiment [2] is 3 nM; in [1], 157 nM.
Consider `COc1ccc(C[C@H](NC(=O)[C@H](C)NC(=O)C2=C(C)c3ccccc3C2)C(=O)N[C@@H](CC2CCCCC2)C(=O)[C@@]2(C)CO2)cc1`, for which the IC50 in [2] was 3 nM; in experiment [1], 14.5 nM.
On to `COc1ccc(C[C@H](NC(=O)[C@H](C)NC(=O)CN2CCOCC2)C(=O)N[C@@H](Cc2ccc(-c3ccccc3)cc2)C(=O)[C@@]2(C)CO2)cc1`, for which the results for the IC50 in experiment [2] and in experiment [1] were 2 nM and 20 nM, respectively.
In the case of `COc1ccc(C[C@H](NC(=O)[C@@H](C)NC(=O)CN2CCOCC2)C(=O)N[C@@H](CC2CCCCC2)C(=O)[C@@]2(C)CO2)cc1`, the IC50 in [3] is 7300 nM; in [4] it was 100 nM; in experiment [2], 36 nM; in experiment [5], greater than 10000 nM.
Turning to `CCCC[C@H](NC(=O)[C@@H]1CCN1C(=O)[C@H](C)NC(=O)CN=[N+]=[N-])C(=O)N[C@@H](CC(C)C)C(=O)[C@@]1(C)CO1`, the figures for the IC50 in experiment [6] and in [5] were 54 nM and 96 nM, respectively. Besides, the Ratio IC50 in [7] was found to be 0.6.
With `COc1ccc(C[C@H](NC(=O)[C@H](C)NC(=O)CN2CCOCC2)C(=O)N[C@@H](Cc2ccccc2)C(=O)[C@@]2(C)CO2)cc1`, the IC50 in experiment [8] is 1100 nM; in experiment [9] it was 180 nM; in experiment [10], greater than 5000 nM; in experiment [6] it was greater than 10000 nM; in experiment [11], 1100 nM; in experiment [1] it was 54 nM.
For the molecule `CCCC[C@H](NC(=O)[C@@H]1C[C@@H](F)CN1C(=O)[C@H](C)NC(=O)CN=[N+]=[N-])C(=O)N[C@@H](CC(C)C)C(=O)[C@@]1(C)CO1`, the IC50 amounted to 66 nM in experiment [6] and 22 nM in experiment [5]. Moreover, the Ratio IC50 in experiment [7] is 3.
As to `CCCC[C@H](NC(=O)[C@@H]1CCCN1C(=O)[C@H](C)NC(=O)CN=[N+]=[N-])C(=O)N[C@@H](Cc1ccccc1)C(=O)[C@@]1(C)CO1`, the IC50 was greater than 100000 nM in experiment [12], 580 nM in experiment [6] and 66 nM in experiment [5]. In addition, the Ratio IC50 in experiment [7] stood at 9.
The like results for `CCCCCCC(=O)N[C@@H](C)C(=O)N[C@@H](CC(C)C)C(=O)[C@@]1(CO[Si](C)(C)C(C)(C)C)CO1` were, in that order, 25000 nM, 15000 nM, 104 nM and 144.
As for `COc1ccc(C[C@H](NC(=O)[C@H](C)NC(=O)CN2CCOCC2)C(=O)N[C@@H](Cc2cccc3ccccc23)C(=O)[C@@]2(C)CO2)cc1`, the IC50 in experiment [2] came out at 244 nM; in experiment [1] it was 1800 nM.
The like results for `C[C@@H](NC(=O)CN1CCOCC1)C(=O)N[C@@H](Cc1c[nH]c2ccccc12)C(=O)N[C@@H](Cc1ccc(-c2ccccc2)cc1)C(=O)[C@@]1(C)CO1` were, in that order, 2.1 nM and 14 nM.
The corresponding values for `COc1ccc(C[C@H](NC(=O)[C@H](C)NC(=O)CN2CCOCC2)C(=O)N[C@@H](Cc2ccc3ccccc3c2)C(=O)[C@@]2(C)CO2)cc1` are 3.1 nM and 97 nM.
As to `CCCC[C@H](NC(=O)[C@@H]1CC(F)(F)CN1C(=O)[C@H](C)NC(=O)CN=[N+]=[N-])C(=O)N[C@@H](Cc1ccccc1)C(=O)[C@@]1(C)CO1`, the IC50 was greater than 100000 nM in experiment [12], 4800 nM in experiment [6] and 42 nM in experiment [5]. Further, in experiment [7], the Ratio IC50 is 114.
`CCCC[C@H](NC(=O)[C@@H]1C[C@H](F)CN1C(=O)[C@H](C)NC(=O)CN=[N+]=[N-])C(=O)N[C@@H](CC(C)C)C(=O)[C@@]1(C)CO1`: the figures for the IC50 in experiment [6] and in experiment [5] were 510 nM and 220 nM, respectively. Also, the Ratio IC50 in experiment [7] is 2.3.
Consider `CCCC[C@H](NC(=O)[C@@H]1CSCN1C(=O)[C@H](C)NC(=O)CN=[N+]=[N-])C(=O)N[C@@H](CC(C)C)C(=O)[C@@]1(C)CO1`, for which the IC50 was found to be 240 nM in experiment [6] and 68 nM in experiment [5]. For the same molecule, in experiment [7], the Ratio IC50 came out at 6.5.
On to `COc1ccc(C[C@H](NC(=O)[C@H](C)NC(=O)CN2CCOCC2)C(=O)N[C@@H](CC2CCCCC2)C(=O)[C@@]2(C)CO2)cc1`, for which the IC50 in experiment [3] stood at 370 nM; in experiment [4], 44 nM; in [2], 6.6 nM; in experiment [5], 300 nM.
As for `COc1ccc(C[C@H](NC(=O)[C@H](C)NC(=O)CN2CCOCC2)C(=O)N[C@H](/C=C/S(C)(=O)=O)CC2CCCCC2)cc1`, the IC50 in experiment [2] is 5700 nM; in [1] it was greater than 100000 nM.
The like results for `C[C@@H](NC(=O)CN1CCOCC1)C(=O)N[C@@H](Cc1c[nH]c2ccccc12)C(=O)N[C@@H](Cc1ccccc1)C(=O)[C@@]1(C)CO1` were, in that order, 13 nM and 104 nM.
For the molecule `CCCC[C@H](NC(=O)[C@@H]1CCCN1C(=O)[C@H](C)NC(=O)CN=[N+]=[N-])C(=O)N[C@@H](CC1CCCCC1)C(=O)[C@@]1(C)CO1`, the IC50 in experiment [12] is greater than 30000 nM; in experiment [6], 3400 nM; in experiment [5], 87 nM. In addition, in [7], the Ratio IC50 came to 39.
`COc1ccc(C[C@H](NC(=O)[C@H](C)NC(=O)CN2CCOCC2)C(=O)N[C@H](/C=C/S(C)(=O)=O)Cc2ccccc2)cc1`: the IC50 came out at 392 nM in [2] and 14000 nM in experiment [1].
Turning to `COc1ccc(C[C@H](NC(=O)[C@H](C)NC(=O)C2=C(C)c3ccccc3C2)C(=O)N[C@@H](Cc2ccc(-c3ccccc3)cc2)C(=O)[C@@]2(C)CO2)cc1`, the IC50 in experiment [2] amounted to 1.4 nM; in experiment [1], 12.6 nM.
Turning to `CC1=C(C(=O)N[C@H](C)C(=O)N[C@@H](Cc2c[nH]c3ccccc23)C(=O)N[C@H](/C=C/S(C)(=O)=O)CC2CCCCC2)Cc2ccccc21`, the results for the IC50 in [2] and in [1] were 632 nM and 62000 nM, respectively.
The corresponding values for `COc1ccc(C[C@H](NC(=O)[C@H](C)NC(=O)C2=C(C)c3ccccc3C2)C(=O)N[C@@H](Cc2ccccc2)C(=O)[C@@]2(C)CO2)cc1` are 5 nM and 6 nM.
As to `CCCC[C@H](NC(=O)[C@@H]1C[C@@H](O)CN1C(=O)[C@H](C)NC(=O)CN=[N+]=[N-])C(=O)N[C@@H](CC(C)C)C(=O)[C@@]1(C)CO1`, the IC50 in experiment [6] was 860 nM; in experiment [5] it was 170 nM. The Ratio IC50 in experiment [7] worked out at 5.
On to `CC1=C(C(=O)N[C@H](C)C(=O)N[C@@H](Cc2c[nH]c3ccccc23)C(=O)N[C@@H](Cc2ccc(-c3ccccc3)cc2)C(=O)[C@@]2(C)CO2)Cc2ccccc21`, for which the figures for the IC50 in experiment [2] and in [1] were 5 nM and 79 nM, respectively.
The like results for `COc1ccc(C[C@H](NC(=O)[C@@H](C)NC(=O)C2=C(C)c3ccccc3C2)C(=O)N[C@@H](Cc2ccc(-c3ccccc3)cc2)C(=O)[C@@]2(C)CO2)cc1` were, in that order, 3.3 nM and 43 nM.
Consider `CCCC[C@H](NC(=O)[C@@H]1CC(F)(F)CN1C(=O)[C@H](C)NC(=O)CN=[N+]=[N-])C(=O)N[C@@H](CC(C)C)C(=O)[C@@]1(C)CO1`, for which the results for the IC50 in [6] and in [5] were 360 nM and 34 nM, respectively. Further, the Ratio IC50 in [7] amounted to 10.5.
Turning to `CCCC[C@H](NC(=O)[C@@H]1CCCCN1C(=O)[C@H](C)NC(=O)CN=[N+]=[N-])C(=O)N[C@@H](CC(C)C)C(=O)[C@@]1(C)CO1`, the IC50 came out at 250 nM in experiment [6] and 67 nM in experiment [5]. The Ratio IC50 in [7] is 3.7.
`COc1ccc(C[C@H](NC(=O)[C@H](C)NC(=O)CN2CCOCC2)C(=O)N[C@@H](CC23CC4CC(CC(C4)C2)C3)C(=O)[C@@]2(C)CO2)cc1`: the IC50 in experiment [2] and in experiment [1] was greater than 50000 nM throughout.
`COc1ccc(C[C@H](NC(=O)[C@@H](C)NC(=O)CN2CCOCC2)C(=O)N[C@@H](Cc2ccc(-c3ccccc3)cc2)C(=O)[C@@]2(C)CO2)cc1`: the IC50 in [2] was 1.2 nM; in experiment [1], 9.9 nM.
